“And” between values parts separate entries of the source, which are not always exact repeats. Identical values can stand only once. Counter-ions that a name gives are not always drawn.
How the values were obtained:
[1] = tested on: SD Rats Fed a Pioglitazone (0.03%) Containing Diet; test: Body weight of SD rats fed a pioglitazone-containing diet for 7 days; type: in vivo, Sprague-Dawley rats; details: for Body Weight (g) DAY 1: day 1 (first day of pioglitazone 0.03% diet and compound in drinking water), amiloride 1.5 mg/kg; for Body Weight (g) DAY 1 / Body Weight (%) DELTA (percent weight gain) / Body Weight (g) DELTA (weight gain) / Body Weight (g) DAY 7 / Body Weight (%) DAY 7: TEST COMPOUND 4.5 mg/kg; for Body Weight (g) DAY 1 / Body Weight (%) DELTA (percent weight gain) / Body Weight (g) DELTA (weight gain) / Body Weight (g) DAY 7 / Body Weight (%) DAY 1 / Body Weight (%) DAY 7: mean ± SEM; for Body Weight (%) DELTA (percent weight gain): day 7 minus day 1, percent of day 1 value; for Body Weight (%) DELTA (percent weight gain) / Body Weight (g) DELTA (weight gain) / Body Weight (%) DAY 1 / Body Weight (%) DAY 7: pioglitazone 0.03% diet; for Body Weight (%) DELTA (percent weight gain) / Body Weight (g) DELTA (weight gain) / Body Weight (g) DAY 7 / Body Weight (%) DAY 7: amiloride 1.5 mg/kg in drinking water; for Body Weight (g) DELTA (weight gain): day 7 minus day 1; for Body Weight (g) DAY 7: day 7 of pioglitazone 0.03% diet; for Body Weight (%) DAY 1 / Body Weight (%) DAY 7: percent of day 1 value
Text: (§1) […] On day −5 rats and water bottles were weighed and placed in the cage with ad lib access to standard rodent chow. Body weights were used to assign rats to counter-balanced groups. Daily water consumption was estimated after weighing bottles again on day −1 and used to determine the appropriate drug concentrations to achieve the desired daily doses. On day 1, rats were weighed and then received an ad mixed diet (ad lib) containing 0.03% pioglitazone in place of standard chow. Food weight was recorded in order to track consumption over the course of the experiment. At this time, rats were also given drinking water containing compound at the appropriate concentration. Full bottles were pre-weighed and recorded in order to track consumption over the course of the experiment. On day 7, rats, food and water bottles were again weighed and recorded, hematocrits were determined using blood collected by a tail nick. All data are presented as means +/−1 SEM. Statistical analyses were performed using GraphPad Prism statistical software. The mean differences among the treatment groups for all variables were tested for statistical significance using 2-way repeated measures ANOVAs. Additionally, differences were calculated for each animal (day 7−day 1), and resultant means were tested for statistical significance using 1-way ANOVAs.

[2] = tested on: SD Rats Fed a Pioglitazone (0.03%) Containing Diet; test: Plasma volume (hematocrit) of SD rats fed a pioglitazone-containing diet for 7 days; type: in vivo, Sprague-Dawley rats; details: for Plasma expansion versus vehicle treated rats (in words): 7 days pioglitazone diet, compound in drinking water; for Plasma Volume % DAY 1: day 1 (first day of pioglitazone 0.03% diet and compound in drinking water), amiloride 1.5 mg/kg; for Plasma Volume % DAY 1 / Plasma Volume % DELTA / Plasma Volume % DAY 7: TEST COMPOUND 4.5 mg/kg, mean ± SEM; for Plasma Volume % DELTA: day 7 minus day 1, pioglitazone 0.03% diet; for Plasma Volume % DELTA / Plasma Volume % DAY 7: amiloride 1.5 mg/kg in drinking water; for Plasma Volume % DAY 7: day 7 of pioglitazone 0.03% diet
Text: as §1, with “On day 1 and day 7, rats were warmed using a heating pad and lightly anesthetized using isoflurane (Butler Animal Health Services; Chicago, Ill.). Using a sterile scalpel blade, a small tail nick was made on the distal one third of the tail. Blood was collected in a heparinized microcapillary tube (FisherBrand; Pittsburg, Pa.), sealed with putty at one end and stored on ice until centrifugation (5000 rpm, 5 min). Plasma volume was determined using a Critocaps microhematocrit capillary tube reader card (Leica: Lot #7426). On day 7, rats,” for “On day 7, rats,”

[3] = one week, pioglitazone 20-25 mg/kg/day in diet

With `OC[C@H]1O[C@@H](c2ccc(Cl)c(Cc3ccc(OCCOC4CC4)cc3)c2)[C@H](O)[C@@H](O)[C@@H]1O` [TEST COMPOUND, (2S,3R,4R,5S,6R)-2-(4-chloro-3-(4-(2-cyclopropoxyethoxy)benzyl)phenyl)-6-(hydroxymethyl)tetrahydro-2H-pyran-3,4,5-triol] the “Body Weight (g) DAY 1” value [1] was 371.7 ± 5.0 ^ g, the “Body Weight (%) DELTA (percent weight gain)” value [1] was 4.8% and 4.8 ± 1.3 % and the “Body Weight (g) DELTA (weight gain)” value [1] was 17.4 g and 17.5 ± 4.7 g. The “Body Weight (g) DAY 7” value [1] was 389.2 ± 5.7 ^†† g, the “Body Weight (%) DAY 1” value [1] was 100 ± 0 ^ % and the “Body Weight (%) DAY 7” value [1] was 104.8 ± 1.3 ^†† %. The “Plasma expansion versus vehicle treated rats (in words)” value [2] was “significantly less plasma expansion than vehicle treated rats”, the “Plasma Volume % DAY 1” value [2] was 52.9 ± 0.5% and the “Plasma Volume % DELTA” value [2] was 1.8 ± 0.8 %. The “Plasma Volume % DAY 7” value [2] was 54.7 ± 0.6 %.
For `N=C(N)NC(=O)c1nc(Cl)c(N)nc1N` [Amiloride, Amiloride HCl Hydrate], the “Body Weight (g) DAY 1” value [1] was 370.0 ± 6.0 g, the “Body Weight (%) DELTA (percent weight gain)” value [1] was 10.8 ± 0.7% and the “Body Weight (g) DELTA (weight gain)” value [1] was 40.0 ± 2.8 g. The “Body Weight (g) DAY 7” value [1] was 410.0 ± 7.7 g, the “Body Weight (%) DAY 1” value [1] was 100 ± 0% and the “Body Weight (%) DAY 7” value [1] was 110.8 ± 0.7 %. For the same molecule, the “Plasma expansion versus vehicle treated rats (in words)” value [2] was “significance for the observed trend toward reversal of PPAR-γ induced expansion was not achieved”, the “Plasma Volume % DAY 1” value [2] was 52.7 ± 0.9% and the “Plasma Volume % DELTA” value [2] was 3.9 ± 0.7%. The “Plasma Volume % DAY 7” value [2] was 56.6 ± 0.4 %.
`CCc1ccc(CCOc2ccc(CC3SC(=O)NC3=O)cc2)nc1` (stereo not shown) [pioglitazone] was tested, and the “Increase in body weight induced by pioglitazone” value [1, 3] was “approximately 45 g” and the “Plasma expansion induced by pioglitazone (in words)” value [2, 3] was “significant plasma expansion”.

From patent publication US20110077212A1, “THERAPEUTIC USES OF SGLT2 INHIBITORS” (Theracos, Inc., priority 2009, published 2011)
